Measurements reported in US11730826B2, “Amphiphilic nanoparticles for delivery of CRISPR based therapy” (Massachusetts Institute of Technology, priority 2016, dated 2023).

Tests used:
[1] = tested on: SMAD4 sgRNA; assay: Activity of sgRNA after incubation with small molecule anticancer agents (WB in Cas9-expressing SKOV3 cells); assay type: cell-based, human; details: for effect of co-incubation on SMAD4 sgRNA suppression: up to 24 h prior to transfection; for suppression of SMAD4 protein by sgRNA after coincubation: 12 h of coincubation, effective = levels <30% of baseline
Procedure: Activity of sgRNA after incubation with various small molecule anticancer agents: To determine the effects of platination or alkylation of sgRNA on silencing efficiency, SMAD4 sgRNA was first pre-incubated with various small molecules including Pt(II), Pt(IV)-COOH, doxorubicin, gemcitabine, camptothecin, or melphalan for either 12 h or 24 h, at 37° C., and at a drug to sgRNA molar ratio of 10:1 in RNase free water. The sgRNA was then purified by […] (Mw=3 kDa) and quantified by Nanodrop. The RNAi-MAX (Invitrogen, Thermo-fisher, USA) was utilized to transfect the reacted sgRNA (10 nM) into Cas9-expressing SKOV3 cells in 6-well plates. After 72 h, protein was recovered from cell lysates and analyzed by WB to quantify SMAD4 and GAPDH (product of a house-keeping gene; control) levels with respect to those of untreated cells. In addition, to compare the effects of Pt(II) and Pt(IV)-COOH interference with sgRNA-mediated recognition and target gene silencing by Cas9, various incubation periods were examined (i.e. 3, 6, and 9 h).

[2] = tested on: s-SMAD4; assay: Reactions of sgRNA with anticancer agents by MALDI/TOF MS; details: for adducts in the RNA macromolecule: 24 h of incubation; for time at which RNA adducts were formed: excess agent
Procedure: Determination of the reactions of sgRNA with anticancer agents by MALDI/TOF MS: A 20-mer of RNA comprising the seed region of SMAD4 sgRNA (s-SMAD4) was mixed with Pt(II), Pt(IV)-COOH, doxorubicin, gemcitabine, camptothecin or melphalan at a molar ratio of 1:10 in RNase free water (RNA final concentration (10 μM); small molecule (100 μM)). The reaction mixture was shaken in a 37° C. incubator for a prescribed time interval (30 min, 1 h, 3 h, 6 h, 9 h, 12 h, or 24 h); and, 10 μL of each solution was analyzed by MALDI/TOF MS (positive mode), employing hydroxipicolinic acid as the matrix.

[3] = tested on: s-SMAD4; assay: Kinetics of Pt-RNA adduct formation by AAS
[4] = tested on: BCL-2 siRNA; assay: siRNA binding with platinum species by MALDI-TOF-MS; details: 10-fold excess of platinum species
Procedure: A single-stranded siRNA (UCAGGUACUCAGUCAUCCACATT) was mixed with OxaPt(II) at a molar ratio of 1:10 in RNAase free water (RNA final concentration: 50 μM; Pt final concentration: 500 μM; total volume: 100 μL). The reaction mixture was placed in a 37° C. incubator and 10 μL of sample were removed at various time points to obtain MALDI-TOF-MS spectra (positive model). Analogous methods were employed to obtain spectra of the reaction products of siRNA with OxaPt(IV), CisPt(II) and CisPt(IV).

[5] = tested on: s-SMAD4; assay: PicoGreen based melting temperature assay of s-SMAD4/ss-DNA heterodimer
Procedure: The Tm of the unreacted 20-mer and the ss-DNA (41° C.) resembled the calculated Tm of the heterodimer of the native SMAD4 sgRNA with DNA (43° C.).

[6] = tested on: Cytoplasmic RNA; details: upon intracellular uptake; cited from earlier work
[7] = tested on: 5′-GMP; assay: 5′-GMP binding with platinum species by 1HNMR
Procedure: The binding kinetics of 5′-GMP to each platinum species were determined by measuring the relative amounts of free and Pt-bound 5′-GMP at each time point, integrating the ratio of the ^1HNMR peaks at 8.5 ppm to 8.09 ppm.

[8] = tested on: BCL-2 siRNA; assay: Silencing activity of BCL-2 siRNA preincubated with platinum species (qRT-PCR); assay type: cell-based; details: MCF-7 cells, RT-qPCR 48 h after transfection, pre-incubation 1 vs. 12 h
Procedure: 48 hours after transfection, total RNA was isolated using an RNeasy mini-kit (Qiagen, Germantown, Md.) and quantified by NanoDrop. 300 ng of mRNA were subsequently subjected to qRT-PCR analysis, targeting BCL-2 and glyceraldehyde 3-phosphate dehydrogenase (GAPDH) by using the SYBR Premix Ex (Takara, USA) and by using an Applied Biosystems StepOne Real-Time PCR System. Relative gene expression values were determined by the […] using StepOne Software v2.1 (Applied Biosystems). Data are presented as fold differences in […] normalized to GAPDH (house-keeping gene used as endogenous reference), employing a standard curve, and are reported relative to untreated (control) cells. The sequence of the primers used for BCL-2 and GAPDH are as follows: BCL-2 forward—5-[…]-3; Bcl-2 reverse—5-[…]-3; GAPDH forward—5-[…]-3; and GAPDH reverse primer—5-[…]-3 (Integrated DNA Technology. IW, USA). The specificity of each set of primers was verified by melting curve analysis.

Row | Structure (SMILES) | effect of co-incubation on SMAD4 sgRNA suppression [1] | adducts in the RNA macromolecule [2] | earliest time Pt-siRNA adducts detected [4] | incubation time beyond which sgRNA was unable to prevent protein expression [1] [h] | suppression of SMAD4 protein by sgRNA after coincubation [1] | also measured
1 | CC[C@@]1(O)C(=O)OCc2c1cc1n(c2=O)Cc2cc3ccccc3nc2-1 [camptothecin] | did not alter the ability of SMAD4 sgRNA to effectively suppress expression levels | no adducts were detected | – | – | – | –
2 | N.N.[Cl][Pt][Cl] [CisPt(II), cisplatin] | – | – | ≤ 30 m | > 3 | unable to effectively suppress expression of SMAD4 protein | Pt atoms bound per RNA macromolecule [3]: up to 6; RNA platinated ([3]; incubated for 1 h with >10 μM): > 50%; apparent second-order rate constant ([3]; pseudo-first order kinetics): > 10 µM⁻¹ s⁻¹; heterodimerization of pretreated s-SMAD4 with ss-DNA [5]: could not heterodimerize with ss-DNA at any temperature; concentrations of Pt-RNA adducts relative to Pt-DNA adducts [6]: 5-6 times; time at which RNA adducts were formed ([2]; aqueous solution, 37° C.): 30 min; formation of Pt(NH3)2(5′-GMP)2 adducts ([7]; data not shown): rapid formation and time dependent increases
3 | COc1cccc2c1C(=O)c1c(O)c3c(c(O)c1C2=O)C[C@@](O)(C(=O)CO)C[C@@H]3O[C@H]1C[C@H](N)[C@H](O)[C@H](C)O1 [doxorubicin] | did not alter the ability of SMAD4 sgRNA to effectively suppress expression levels | physical association multimers in non-covalent complexes with RNA | – | – | – | –
4 | N[C@@H](Cc1ccc(N(CCCl)CCCl)cc1)C(=O)O [melphalan] | – | – | – | > 6 | unable to effectively suppress expression of SMAD4 protein | time at which RNA adducts were formed [2]: 60 min
5 | O=C1[O][Pt]2([NH][C@@H]3CCCC[C@H]3[NH]2)[O]C1=O [OxaPt(II), Oxaliplatin] | – | – | 1 h | – | – | effect of incubation with siRNA on silencing efficiency [8]: concentration and time-dependent decrease in silencing efficiency; DACHPt(5′-GMP)2 adducts as share of the total 5′-GMP pool ([7]; over the first 6 h, 10 mM 5′-GMP, 5 mM Pt, 37° C.): > 40%
6 | Nc1ccn([C@@H]2O[C@H](CO)[C@@H](O)C2(F)F)c(=O)n1 [gemcitabine] | did not alter the ability of SMAD4 sgRNA to effectively suppress expression levels | no adducts were detected | – | – | – | –
